Laboratory results from PubChem BioAssay (NCI).
Several values for one entry are separate records, joined by “and”; a condition that tells them apart may be missing. Equal values may be shown once.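 Following 48 hours of exposure in 96-well plates, responses at five concentrations were used to interpolate endpoints linearly. GI50 is the concentration that inhibits growth by half. Definition used: TGI = concentration required for complete inhibition of growth.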

Tests used:
Assay in all cases: inhibition of tumour cell growth, NCI panel, 48 h
[1] = system: ACHN renal
[2] = system: HCC-2998 colon
[3] = system: MALME-3M melanoma
[4] = system: MDA-MB-435
[5] = system: MOLT-4 leukemia
[6] = system: SF-539 CNS
[7] = system: SK-MEL-28 melanoma
[8] = system: SK-OV-3 ovarian
[9] = system: SNB-75 CNS
[10] = system: T-47D breast

Row | Compound | GI50 [1] | TGI [1] | GI50 [2] | TGI [2] | GI50 [3] | TGI [3] | GI50 [4] | TGI [4] | GI50 [5] | TGI [5] | GI50 [6] | TGI [6] | GI50 [7] | TGI [7] | GI50 [8] | TGI [8] | GI50 [9] | TGI [9] | GI50 [10] | TGI [10]
1 | Clc1ccc(-c2nc(-c3c[nH]c4ncccc34)cs2)cc1 | > 100 µM | > 100 µM | > 100 µM | > 100 µM | > 100 µM | > 100 µM | > 100 µM | > 100 µM | > 100 µM | > 100 µM | 35.7 µM | > 100 µM | > 100 µM | > 100 µM | > 100 µM | > 100 µM | > 100 µM | > 100 µM | 9.41 µM | > 100 µM
2 | O=C(/C=C/c1ccccc1Cl)c1ccc(O)cc1 | 6.99 µM | 19.2 µM | 12.7 µM | 26.7 µM | 16.3 µM | 31.1 µM | 4.23 µM | 17.6 µM | 5.64 µM | > 57.6 µM | 5.22 µM | 12.2 µM | 11 µM | 23 µM | 12.1 µM | 25.9 µM | 10.6 µM | 24.5 µM | 6.38 µM | 25.9 µM
3 | O=S(=O)(c1ccc2c(c1)C(=NO)c1cc(S(=O)(=O)N3CCCCC3)ccc1-2)N1CCCCC1 | 0.188 µM and 0.163 µM | 0.389 µM and 0.319 µM | 0.298 µM and 0.134 µM | > 1 µM and 0.273 µM | > 1 µM and 0.174 µM | > 1 µM and 0.312 µM | 0.173 µM and 0.102 µM | 0.317 µM and 0.244 µM | 0.204 µM and 0.215 µM | 0.433 µM and 0.832 µM | 0.227 µM and 0.17 µM | 0.569 µM and 0.312 µM | 0.346 µM and 0.177 µM | > 1 µM and 0.326 µM | 0.187 µM and 0.162 µM | 0.362 µM and 0.311 µM | 0.147 µM and 0.0587 µM | 0.287 µM and 0.151 µM | 0.186 µM and 0.18 µM | 0.423 µM and 0.384 µM
4 | C[C@@]12CCC[C@@](C)(C(=O)O)C1CC[C@]13C=C(CO)[C@](O)(CCC12)C3 (some centres undefined) | > 100 µM | > 100 µM | > 100 µM | > 100 µM | > 100 µM | > 100 µM | > 100 µM | > 100 µM | > 100 µM | > 100 µM | > 100 µM | > 100 µM | > 100 µM | > 100 µM | > 100 µM | > 100 µM | > 100 µM | > 100 µM | > 100 µM | > 100 µM
5 | COc1ccc(C2=C(Br)C(=O)OC2)cc1Cl | 19.3 µM | 39.9 µM | 14.9 µM | 38.2 µM | 37.3 µM | > 78.3 µM | 27.4 µM | > 100 µM | 29.5 µM | > 100 µM | 15.2 µM | 39.8 µM | 30.9 µM | > 93.1 µM |  | > 66.9 µM | 55.8 µM | > 100 µM | 1.93 µM | 35.5 µM
6 | CN(C)c1cc2c(cc1Sc1nc3c(N)nccc3n1CCNCC(C)(C)C)OCO2 | 0.573 µM | > 59.6 µM | 0.805 µM | 6.03 µM | 0.428 µM | 4.91 µM | 0.426 µM | 15.4 µM | 0.287 µM | 3.54 µM | 1.45 µM | 16.3 µM | 0.621 µM | 15.6 µM | 0.394 µM | 15.2 µM | 1.53 µM | 19.1 µM | 0.533 µM | 31.1 µM
7 | NC(=O)c1cccc(N)c1 | > 100 µM | > 100 µM | > 100 µM | > 100 µM | > 100 µM | > 100 µM | > 100 µM | > 100 µM | > 100 µM | > 100 µM | > 100 µM | > 100 µM | > 100 µM | > 100 µM | > 100 µM | > 100 µM | 74.6 µM | > 100 µM | > 100 µM | > 100 µM
8 | CCN1CCN(CCNc2nccc(-c3c(-c4cccc(O)c4)nc4sccn34)n2)S1(=O)=O | 6.72 µM and 4.13 µM | 32 µM and > 100 µM | 32.1 µM and 29.4 µM | 32.5 µM and > 100 µM | 0.0775 µM and 0.118 µM | 0.42 µM and 0.785 µM | 0.313 µM and 0.376 µM | 14.5 µM and 5.79 µM | 19.2 µM and 21.7 µM | 32.5 µM and 57.6 µM | 28.6 µM and 21.3 µM | 32.5 µM and 78.5 µM | 0.181 µM and 0.13 µM | 32.5 µM and > 100 µM | 7.93 µM and 3.95 µM | 32.5 µM and 22.8 µM | 12.6 µM and 6.84 µM | 32.5 µM and > 100 µM | 22.1 µM and 11 µM | 32.5 µM and 53 µM
9 | CCN(CC)CCC(CNc1c2ccc([N+](=O)[O-])cc2nc2cc(OC)c(OC)cc12)c1ccccc1 (centres undefined) | 0.553 µM and 0.518 µM | 2.07 µM and 2.06 µM | 0.138 µM and 0.114 µM | 0.348 µM and 0.284 µM | 0.201 µM and 0.191 µM | 0.454 µM and 0.479 µM | 0.161 µM and 0.148 µM | 0.311 µM and 0.319 µM | 0.317 µM and 0.444 µM | 2.41 µM and 5.93 µM | 0.38 µM and 0.423 µM | 1.46 µM and 1.64 µM | 0.347 µM and 0.278 µM | 1.23 µM and 0.831 µM | 0.844 µM and 0.695 µM | 2.17 µM and 2.55 µM | 0.33 µM and 0.673 µM | 1.62 µM and 2.15 µM | 0.822 µM and 0.541 µM | 2.97 µM and 2.61 µM
10 | S=c1cn[nH]c2ccc(Br)cc12 |  | > 100 µM |  | > 100 µM |  | 79 µM |  | > 100 µM |  | > 100 µM |  | > 100 µM |  | > 100 µM |  | > 100 µM |  | > 100 µM |  | > 100 µM
11 | Cc1nc(NC(=O)COc2cccc(/C=C3\COc4ccccc4C3=O)c2)sc1C | 1.85 µM | 3.77 µM | 1.94 µM | 3.49 µM | 1.79 µM | 4.11 µM | 2.14 µM | 5.74 µM | 3.5 µM | > 100 µM | 1.73 µM | 3.46 µM | 1.79 µM | 3.32 µM | 8.97 µM | 21.3 µM | 5.49 µM | 18.7 µM | 2.9 µM | 10.4 µM
12 | O=C(O[C@H]1CN[C@H](C#Cc2cc3ncnc(Nc4ccc(Cc5ccccc5)cc4)c3s2)C1)N1CCOCC1 | 3.53 µM | > 25 µM | 4.2 µM | 9.1 µM | 4.71 µM | > 20.3 µM | 6.33 µM | > 22.5 µM | 6.93 µM | > 25 µM | 4.42 µM | 11.7 µM | 4.78 µM | 10.9 µM | 0.033 µM | > 25 µM | 1.87 µM | > 19.4 µM | 1.86 µM | > 25 µM
